# Experimental data reported in patent US11512821B2, “Systems and method for evaluating ultraviolet-protection products” (ABICH INC., priority 2019, dated 2022).
# Read-outs that look alike come from different tables or passages of the source.
# Columns and labels:
# [1] = tested on: THP-1 cells; type: cell-based; conditions: percent of living cells (PI negative), b192
# From the text: Cell vitality: The percent of living cells (PI negative) must be above 80% in all samples.
# [2] = tested on: CD86 (B7.2); conditions: for CD86 % compared to CN: THP-1, 24 h; for CD86 MFI: THP-1, 24 h at 37° C.
# From the text: (§1) The purpose of the test is to assess the absence of pro-sensitizing skin effects from finished products or raw materials intended for contact with the skin or mucous membranes, such as medical devices, cosmetics, toys or textiles. In the present study, we used a human monocytes cell line (THP-1) as prototypic blood-derived immunologically active cell. On these cells, we tested the expression of two costimulatory molecules, CD54 (Intercellular Adhesion Molecule) and CD86 (B7.2), using as a positive control Nickel sulphate, a well-known contact sensitizing agent. Nickel sulphate is able to cause in vivo allergic immune reactions (skin sensitization) and it is also been widely used to study in vitro immune response modulation. As silicone elastomer (Silicone 30A—example of medical grade silicone) was tested at two concentrations, against Nickel positive controls.
# (§2) The increasing expression level of CD54 and CD86 on monocytes is a signal of activation of the immune response derived from the exposition to a potentially sensitizing contact antigen. The expression of co-stimulatory molecules on the dendritic cells means activation of the immunological response in terms of capability to present the antigen in the typical tissues (skin in this case), where, in vivo, the immune protective response is triggered.
# (§3) The normative reference is OECD Guideline 442E, “In vitro Skin Sensitization; Human Cell Line Activation Test (hCLAT)”, which is hereby incorporated by reference in its entirety. The method differs from the OECD Guideline as the test is performed in a single experimental session instead of three independent tests. As positive control, Nickel Sulfate is used instead of DNCB. […] In addition, the acceptance criteria and choice of concentrations to be used in the final test have been optimized according to the laboratory's historical results over the past 10 years.
# (§4) The test is carried out on a monocyte-like human line called THP-1. Cells are kept in RPMI containing 10% FCS and 2 mM glutamine.
# (§5) The sample has been eluted in phosphate buffered saline (1 g/5 ml) for 24 hours at 37° C. The eluted sample was diluted in the cell culture medium at different concentrations for the preliminary cytotoxicity screening on the cells aimed to decide the best concentration to test it without cytotoxic effects on the monocytes, in order to avoid false results. Cell medium exposed to the same experimental conditions were used as a negative control.
# (§6) Following the results of the preliminary assay, the eluted sample was diluted directly in the cell medium at the two different dilutions in order to obtain the desired final concentrations in contact with the THP-1 cells in vitro. The exposure has been carried out for 24 h at 37° C. with 5% CO2.
# (§7) After the incubation with the tested substance and the controls, cells are collected, checked under the microscope for their viability by staining with Trypan Blue dye and counting in a cell counter chamber, washed in PBS and then marked with a fluoresceinated anti-Intercellular Adhesion Molecule (CD54) or B7.2 (CD86) antibody and in both cases with a propidium iodide (PI) solution to simultaneously measure the percentage of dead cells. To this aim, a PI working solution (1 ml PI stock solution (1 mg PI/ml water) in 20 ml PI buffer (1 g glucose/l PBS without Ca/Mg)) is added to […]. A gate is set on the negative cells in order to exclude the dead cells. Only viable cells are included for analyses of CD54 or CD86 expression. After washing, to eliminate the excess antibody, the MFI (Mean Fluorescence Intensity) linked to the cells is evaluated by means of a flux cytofluorimeter (FACS, Fluorescence Activated Cell Sorter, Becton Dickinson, Mountain View, Calif.). This value is proportional to the expression of co-stimulatory molecules.
# (§8) The results are expressed in terms of MFI (Mean Fluorescence Intensity).
# [3] = tested on: CD54 (Intercellular Adhesion Molecule); conditions: for CD54 % compared to Negative Control (CN): THP-1, 24 h; for CD54 MFI: THP-1, 24 h at 37° C.
# From the text: as §1, §2, §3, §4, §5, §6, §7, §8
compound,measurement,setting,value
"O.O.O.O.O.O.O=S(=O)([O-])[O-].[Ni+2] [Nickel Sulfate, Nickel Sulphate (NiSO4.6H2O)]",PI,[1]; 4 μg/ml,88
same,PI,[1]; 10 μg/ml,86
same,PI,[1]; 20 μg/ml,86
same,CD86 % compared to CN,[2]; 4 μg/ml,27.95%
same,CD86 MFI,[2]; 4 μg/ml,26.32
same,CD86 % compared to CN,[2]; 10 μg/ml,146.23%
same,CD86 MFI,[2]; 10 μg/ml,50.65
same,CD86 % compared to CN,[2]; 20 μg/ml,399.03%
same,CD86 MFI,[2]; 20 μg/ml,102.65
same,CD54 % compared to Negative Control (CN),[3]; 4 μg/ml,35.74%
same,CD54 MFI,[3]; 4 μg/ml,33.65
same,CD54 % compared to Negative Control (CN),[3]; 10 μg/ml,63.61%
same,CD54 MFI,[3]; 10 μg/ml,40.56
same,CD54 % compared to Negative Control (CN),[3]; 20 μg/ml,163.94%
same,CD54 MFI,[3]; 20 μg/ml,65.43
